Experimental data: US6696249B1, “Method for screening for inhibitors and activators of type III secretion machinery in gram-negative bacteria” (priority 1998, dated 2004)

Key:
mxiD-lacZ fusion = assay: mxiD-lacZ transcriptional fusion, β-galactosidase activity in vitro; assay type: cell-based, Shigella flexneri
[1] = tested on: icsB-, ipaA-, ipgD-, and mxiD-lacZ fusions; assay: entry region lacZ fusions taken together, transcription in vitro; assay type: cell-based, Shigella flexneri; settings: Congo red in the growth medium
ipaH7.8-lacZ fusion = assay: ipaH7.8-lacZ transcriptional fusion, β-galactosidase activity in vitro; assay type: cell-based, Shigella flexneri; settings: ipaD+ strain
ipaA-lacZ fusion = assay: ipaA-lacZ transcriptional fusion, β-galactosidase activity in vitro; assay type: cell-based, Shigella flexneri
virA-lacZ fusion = assay type: cell-based, Shigella flexneri
Description: (§1) All Shigella flexneri strains identified in Table I are derivatives of the wild-type strain M90T (Sansonetti et al., 1982). Bacteria were grown in Luria-Bertani (LB) medium or tryptic soy (TCS) broth. Antibiotics were used at the following concentrations: ampicillin, 100 μg/ml; kanamycin, 30 μg/ml; and streptomycin, 100 μg/ml. Congo red (SERVA, Heidelberg, Germany) was used to induce secretion by bacteria growing in LB medium.
Secretion of IpaB and IpaC is enhanced when bacteria grow in the presence of Congo red (Parsot et al, 1995). To investigate the effect of Congo red on virA transcription, we assayed the β-galactosidase activity in strain SF1001 (virA-lacZ ipaD^+) after growth in the presence of various concentrations of Congo red.
(§2) To investigate kinetics of activation of the virA promoter, Congo red (100 μg/ml) was added to the growth medium during the exponential phase of growth of derivatives of the wild-type and mxiD strains carrying the virA-lacZ fusion. Samples were then collected at 5 min intervals and assayed for β-galactosidase activity.
(§3) The β-galactosidase activity present in bacteria growing in laboratory media was assayed by using the substrate o-nitro-phenyl-β-D-galactoside (ONPG) as described (Platt et al, 1972). The β-galactosidase activity present in intracellular bacteria was assayed by using the substrate 4-methyl-umbelliferyl-β-D-galactoside (MUG) as described (Klarsfeld et al., 1994). Fluorescence was measured by using a Dynatec apparatus, with 365 nm excitation and 450 nm emission wavelengths. Activities were computed as fluorescence units per hour per bacterium; four fluorescence units were equivalent to one Miller unit and all results are presented in Miller units.

ipaH4.5-lacZ fusion = assay: ipaH4.5-lacZ transcriptional fusion, β-galactosidase activity in vitro; assay type: cell-based, Shigella flexneri; settings: ipaD+ strain
ipaH1.4-lacZ fusion = assay: ipaH1.4-lacZ transcriptional fusion, β-galactosidase activity in vitro; assay type: cell-based, Shigella flexneri; settings: ipaD+ strain
icsB-lacZ fusion = assay: icsB-lacZ transcriptional fusion, β-galactosidase activity in vitro; assay type: cell-based, Shigella flexneri
[2] = tested on: ipaH9.8-, ipaH7.8-, ipaH4.5-, and ipaH1.4-lacZ fusions; assay: ipaH-lacZ fusions taken together, β-galactosidase activity in vitro; assay type: cell-based, Shigella flexneri; settings: 100 μg/ml of Congo red
[3] = tested on: Secretion of IpaB and IpaC; settings: Parsot et al, 1995; cited from earlier work
ipgD-lacZ fusion = assay: ipgD-lacZ transcriptional fusion, β-galactosidase activity in vitro; assay type: cell-based, Shigella flexneri
virA-lacZ mxiD = assay: virA-lacZ transcriptional fusion in mxiD (secretion deficient) strain SF1012, β-galactosidase activity in vitro; assay type: cell-based, Shigella flexneri
Description: as §1
To determine whether regulation of virA transcription was dependent on the type III secretion machinery, we compared the β-galactosidase activities produced by the virA-lacZ fusion in derivatives of wild-type (SF1001) and mxiD (SF1012) strains during growth in the presence of Congo red and we compared the production of VirA in ipaD and mxiD ipaD strains.
as §2, §3

ipaH9.8-lacZ fusion = assay: ipaH9.8-lacZ transcriptional fusion, β-galactosidase activity in vitro; assay type: cell-based, Shigella flexneri; settings: ipaD+ strain
[4] = ipaD+ strain grown in presence of Congo red

## Nc1c(/N=N/c2ccc(-c3ccc(/N=N/c4cc(S(=O)(=O)O)c5ccccc5c4N)cc3)cc2)cc(S(=O)(=O)O)c2ccccc12 [Congo red]
mxiD-lacZ fusion; ipaD+ strain
  Ratio li: activity with Congo red versus without Congo red: 1.2
mxiD-lacZ fusion; [4]
  β-galactosidase activity, ipaD+ + CR: 320 Miller units
[1]
  Effect of Congo red in growth medium on transcription: not affected
ipaH7.8-lacZ fusion
  Ratio li: activity with Congo red versus without Congo red: 12
ipaH7.8-lacZ fusion; 100 μg/ml Congo red
  β-galactosidase activity, ipaD+ + CR: 235 Miller units
ipaA-lacZ fusion; ipaD+ strain
  Ratio li: activity with Congo red versus without Congo red: 0.8
ipaA-lacZ fusion; [4]
  β-galactosidase activity, ipaD+ + CR: 390 Miller units
virA-lacZ fusion
  Concentration of Congo red at which virA-lacZ transcription reaches a plateau: about 100 μg/ml
virA-lacZ fusion; SF1001, concentrations of dye up to 20 μg/ml
  Transcription of the virA-lacZ fusion at low dye concentrations: low
virA-lacZ fusion; virA-lacZ, ipaD+ strain
  Ratio li: activity with Congo red versus without Congo red: 17
virA-lacZ fusion; virA-lacZ, ipaD+ strain grown in presence of 100 μg/ml Congo red, mean of at least three experiments
  β-galactosidase activity, ipaD+ + CR: 280 Miller units
virA-lacZ fusion; wild-type derivative, Congo red 100 μg/ml added in exponential phase, samples at 5 min intervals
  Time after addition of the dye at which an increase in β-galactosidase specific activity was detected: 10 min
ipaH4.5-lacZ fusion
  Ratio li: activity with Congo red versus without Congo red: 3.5
ipaH4.5-lacZ fusion; 100 μg/ml Congo red
  β-galactosidase activity, ipaD+ + CR: 110 Miller units
ipaH1.4-lacZ fusion
  Ratio li: activity with Congo red versus without Congo red: 5.1
ipaH1.4-lacZ fusion; 100 μg/ml Congo red
  β-galactosidase activity, ipaD+ + CR: 270 Miller units
icsB-lacZ fusion; ipaD+ strain
  Ratio li: activity with Congo red versus without Congo red: 1.0
icsB-lacZ fusion; [4]
  β-galactosidase activity, ipaD+ + CR: 285 Miller units
[2]
  Times more β-galactosidase activity after growth with Congo red: 3-12 times
[3]
  Secretion of IpaB and IpaC when bacteria grow in the presence of Congo red: enhanced
ipgD-lacZ fusion; ipaD+ strain
  Ratio li: activity with Congo red versus without Congo red: 1.1
ipgD-lacZ fusion; [4]
  β-galactosidase activity, ipaD+ + CR: 475 Miller units
virA-lacZ mxiD; mxiD mutant derivative, Congo red 100 μg/ml added in exponential phase
  Transcriptional activation of the virA-lacZ fusion after addition of the dye: no transcriptional activation
virA-lacZ mxiD; mxiD strain carrying virA-lacZ, Congo red in growth medium
  Increase in β-galactosidase activity on growth with Congo red: did not lead to an increase
virA-lacZ mxiD; virA-lacZ mxiD strain
  Ratio li: activity with Congo red versus without Congo red: 1.1
virA-lacZ mxiD; virA-lacZ mxiD strain grown in presence of Congo red
  β-galactosidase activity, ipaD+ + CR: 18 Miller units
ipaH9.8-lacZ fusion
  Ratio li: activity with Congo red versus without Congo red: 12
ipaH9.8-lacZ fusion; 100 μg/ml Congo red
  β-galactosidase activity, ipaD+ + CR: 325 Miller units
